Drawing on patent US8507541B2, “N-hydroxyamidinoheterocycles as modulators of indoleamine 2,3-dioxygenase” (Incyte Corporation, priority 2006, dated 2013), this text covers formation of tumors, growth of tumors and IC50 for four molecules.

One assay relates to LLC tumors. The settings on record: LLC tumors in C57Bl/6 mice, versus placebo (Friberg et al); cited from earlier work.
Another assay concerns P815 tumor. The settings on record: pre-immunized immune-competent mice, P815 (Uyttenhove et al); cited from earlier work.
Assay [1] addresses T1, Human idoleamine 2,3-dioxygenase (IDO) (Homo sapiens, UniProt P14902).
T1 construct: His tag (N); made in house; host or cells: E. coli
Briefly: Human indoleamine 2,3-dioxygenase (IDO) enzyme assay. It is filed as biochemical. As to conditions: 95 nM IDO, 2 mM D-Trp, pH 6.5, room temperature, absorbance at 321 nm. The procedure: Human idoleamine 2,3-dioxygenase (IDO) with an N-terminal His tag was expressed in E. coli and purified to homogeneity. IDO catalyzes the oxidative cleavage of the pyrrole ring of the indole nucleus of tryptophan to yield N′-formylkynurenine. The assays were performed at room temperature as described in the literature using 95 nM IDO and 2 mM D-Trp in the presence of 20 mM ascorbate, 5 μM methylene blue and 0.2 mg/mL catalase in 50 mM potassium phosphate buffer (pH 6.5). The initial reaction rates were recorded by continuously following the absorbance increase at 321 nm due to the formation of N′-formylkynurenine. […] The symbol “+” indicates IC50<1000 […].

T1 sequence (P14902 whole entry): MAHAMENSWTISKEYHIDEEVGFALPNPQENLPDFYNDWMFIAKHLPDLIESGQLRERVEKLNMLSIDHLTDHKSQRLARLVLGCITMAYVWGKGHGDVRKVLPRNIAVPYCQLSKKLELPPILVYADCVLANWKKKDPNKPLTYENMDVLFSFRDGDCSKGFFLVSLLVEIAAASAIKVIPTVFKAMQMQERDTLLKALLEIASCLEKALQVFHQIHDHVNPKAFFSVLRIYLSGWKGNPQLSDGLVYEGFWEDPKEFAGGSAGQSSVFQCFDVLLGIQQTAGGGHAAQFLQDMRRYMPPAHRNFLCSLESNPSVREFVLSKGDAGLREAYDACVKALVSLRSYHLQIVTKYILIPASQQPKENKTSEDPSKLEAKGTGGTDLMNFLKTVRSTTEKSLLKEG

With `Cn1cc(C[C@H](N)C(=O)O)c2ccccc21` [Example 1-MT, 1-methyl-tryptophan], the formation of tumors result in the assay with LLC tumors is given as “markedly delayed”. In addition, the growth of tumors result with P815 tumor is reported as “inhibited”.
As for `ON=C(Nc1ccc(F)c(Cl)c1)c1cc(OCCCN2CCCC2)no1` [Example 2, N-(3-Chloro-4-fluorophenyl)-N′-hydroxy-3-(3-pyrrolidin-1-ylpropoxy)isoxazole-5-carboximidamide], the IC50 in assay [1] is over 10 µM.
Consider `ON=C(Nc1ccc(F)c(Cl)c1)c1cc(N2CCOCC2)no1` [Example 3, N-(3-Chloro-4-fluorophenyl)-N′-hydroxy-3-morpholin-ylisoxazole-5-carboximidamide], for which, in assay [1], the IC50 was over 10 µM.
In the case of `CC(=O)Nc1cc(C(=NO)NCc2cc(Cl)ccc2C)on1` [Example 22, N-[5-[(5-chloro-2-methylbenzyl)amino](hydroxyimino)methyl]isoxazol-3-ylacetamide], in assay [1], the IC50 was over 10 µM.

A word on the IC50: it is the midpoint of a concentration-inhibition curve.
